The record followed here is US9340590B2 (priority 2011, dated 2016).

Where two headings read alike, the source gives them in different places. Positions of bridges follow the written chain, without caps; N, C: chain ends. Residues, ends and D or L forms follow the SMILES beside them.

What all share (assay): cell-based
One test addresses hNav1.7 (Homo sapiens, UniProt Q15858). The class given is cell-based.
The target in the next test is hNav1.5 (Homo sapiens, UniProt Q14524).
The target in a further test is hNav1.3 (Homo sapiens, UniProt Q9NY46). Particulars: IonWorks Quattro, read-out: IWQ Use Nav1.3.
Setting [1] is: clamped to −110 mV, depolarized to −10 mV, 5 min after compound, n=2.
[2] abbreviates: IonWorks Quattro, clamped to −110 mV, depolarized to −10 mV, 5 min after compound, n=2, read-out: IWQ Use Nav1.7.

Sequence of hNav1.7 (Q15858 whole entry, looked up): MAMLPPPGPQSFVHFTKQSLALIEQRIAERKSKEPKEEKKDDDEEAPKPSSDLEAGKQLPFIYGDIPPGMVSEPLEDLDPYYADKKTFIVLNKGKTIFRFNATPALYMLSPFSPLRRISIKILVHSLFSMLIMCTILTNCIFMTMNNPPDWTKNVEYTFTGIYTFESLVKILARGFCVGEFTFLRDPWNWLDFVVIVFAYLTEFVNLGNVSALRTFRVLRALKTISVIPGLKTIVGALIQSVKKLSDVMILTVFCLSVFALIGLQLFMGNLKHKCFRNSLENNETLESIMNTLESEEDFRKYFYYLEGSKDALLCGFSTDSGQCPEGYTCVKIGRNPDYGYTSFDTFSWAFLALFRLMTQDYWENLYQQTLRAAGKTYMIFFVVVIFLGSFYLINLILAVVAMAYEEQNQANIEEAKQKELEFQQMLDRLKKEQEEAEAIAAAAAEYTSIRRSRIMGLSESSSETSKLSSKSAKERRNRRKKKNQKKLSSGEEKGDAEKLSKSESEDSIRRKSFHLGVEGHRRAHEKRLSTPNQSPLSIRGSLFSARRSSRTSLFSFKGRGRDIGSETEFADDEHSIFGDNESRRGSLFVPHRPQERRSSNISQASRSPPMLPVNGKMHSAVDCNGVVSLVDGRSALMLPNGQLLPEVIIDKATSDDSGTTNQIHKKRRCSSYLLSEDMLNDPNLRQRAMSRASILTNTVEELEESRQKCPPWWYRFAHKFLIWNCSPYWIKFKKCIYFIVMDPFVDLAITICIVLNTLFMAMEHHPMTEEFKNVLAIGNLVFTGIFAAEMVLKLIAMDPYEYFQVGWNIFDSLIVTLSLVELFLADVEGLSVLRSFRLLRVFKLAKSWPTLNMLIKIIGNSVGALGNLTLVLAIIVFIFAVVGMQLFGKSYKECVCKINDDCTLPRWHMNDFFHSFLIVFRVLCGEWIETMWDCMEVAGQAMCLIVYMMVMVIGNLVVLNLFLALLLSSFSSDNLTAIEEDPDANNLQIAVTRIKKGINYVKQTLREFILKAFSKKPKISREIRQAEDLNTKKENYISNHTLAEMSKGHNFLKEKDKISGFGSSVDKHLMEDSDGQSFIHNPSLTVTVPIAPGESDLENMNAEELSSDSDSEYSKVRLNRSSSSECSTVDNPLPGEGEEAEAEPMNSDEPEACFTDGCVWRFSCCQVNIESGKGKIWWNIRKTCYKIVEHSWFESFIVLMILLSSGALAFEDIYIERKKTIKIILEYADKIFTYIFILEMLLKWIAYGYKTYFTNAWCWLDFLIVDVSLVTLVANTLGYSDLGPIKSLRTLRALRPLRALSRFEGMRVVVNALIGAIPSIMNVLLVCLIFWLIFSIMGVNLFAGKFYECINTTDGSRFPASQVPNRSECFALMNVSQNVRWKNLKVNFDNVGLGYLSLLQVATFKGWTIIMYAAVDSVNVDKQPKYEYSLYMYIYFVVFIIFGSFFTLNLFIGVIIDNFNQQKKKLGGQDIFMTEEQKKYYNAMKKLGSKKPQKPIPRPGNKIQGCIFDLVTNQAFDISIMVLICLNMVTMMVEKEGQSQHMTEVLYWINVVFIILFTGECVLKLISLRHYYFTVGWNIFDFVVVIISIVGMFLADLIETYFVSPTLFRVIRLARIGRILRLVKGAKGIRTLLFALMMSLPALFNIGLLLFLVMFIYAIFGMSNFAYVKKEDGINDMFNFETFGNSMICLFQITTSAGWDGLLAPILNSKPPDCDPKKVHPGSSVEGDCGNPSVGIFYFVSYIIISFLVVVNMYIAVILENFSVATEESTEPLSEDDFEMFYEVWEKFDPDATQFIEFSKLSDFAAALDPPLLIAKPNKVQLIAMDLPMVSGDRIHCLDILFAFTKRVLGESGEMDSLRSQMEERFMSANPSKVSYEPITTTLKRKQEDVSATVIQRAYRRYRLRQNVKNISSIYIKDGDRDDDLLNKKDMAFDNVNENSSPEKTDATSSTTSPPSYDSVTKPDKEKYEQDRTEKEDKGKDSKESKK
Sequence of hNav1.5 (Q14524 whole entry, looked up): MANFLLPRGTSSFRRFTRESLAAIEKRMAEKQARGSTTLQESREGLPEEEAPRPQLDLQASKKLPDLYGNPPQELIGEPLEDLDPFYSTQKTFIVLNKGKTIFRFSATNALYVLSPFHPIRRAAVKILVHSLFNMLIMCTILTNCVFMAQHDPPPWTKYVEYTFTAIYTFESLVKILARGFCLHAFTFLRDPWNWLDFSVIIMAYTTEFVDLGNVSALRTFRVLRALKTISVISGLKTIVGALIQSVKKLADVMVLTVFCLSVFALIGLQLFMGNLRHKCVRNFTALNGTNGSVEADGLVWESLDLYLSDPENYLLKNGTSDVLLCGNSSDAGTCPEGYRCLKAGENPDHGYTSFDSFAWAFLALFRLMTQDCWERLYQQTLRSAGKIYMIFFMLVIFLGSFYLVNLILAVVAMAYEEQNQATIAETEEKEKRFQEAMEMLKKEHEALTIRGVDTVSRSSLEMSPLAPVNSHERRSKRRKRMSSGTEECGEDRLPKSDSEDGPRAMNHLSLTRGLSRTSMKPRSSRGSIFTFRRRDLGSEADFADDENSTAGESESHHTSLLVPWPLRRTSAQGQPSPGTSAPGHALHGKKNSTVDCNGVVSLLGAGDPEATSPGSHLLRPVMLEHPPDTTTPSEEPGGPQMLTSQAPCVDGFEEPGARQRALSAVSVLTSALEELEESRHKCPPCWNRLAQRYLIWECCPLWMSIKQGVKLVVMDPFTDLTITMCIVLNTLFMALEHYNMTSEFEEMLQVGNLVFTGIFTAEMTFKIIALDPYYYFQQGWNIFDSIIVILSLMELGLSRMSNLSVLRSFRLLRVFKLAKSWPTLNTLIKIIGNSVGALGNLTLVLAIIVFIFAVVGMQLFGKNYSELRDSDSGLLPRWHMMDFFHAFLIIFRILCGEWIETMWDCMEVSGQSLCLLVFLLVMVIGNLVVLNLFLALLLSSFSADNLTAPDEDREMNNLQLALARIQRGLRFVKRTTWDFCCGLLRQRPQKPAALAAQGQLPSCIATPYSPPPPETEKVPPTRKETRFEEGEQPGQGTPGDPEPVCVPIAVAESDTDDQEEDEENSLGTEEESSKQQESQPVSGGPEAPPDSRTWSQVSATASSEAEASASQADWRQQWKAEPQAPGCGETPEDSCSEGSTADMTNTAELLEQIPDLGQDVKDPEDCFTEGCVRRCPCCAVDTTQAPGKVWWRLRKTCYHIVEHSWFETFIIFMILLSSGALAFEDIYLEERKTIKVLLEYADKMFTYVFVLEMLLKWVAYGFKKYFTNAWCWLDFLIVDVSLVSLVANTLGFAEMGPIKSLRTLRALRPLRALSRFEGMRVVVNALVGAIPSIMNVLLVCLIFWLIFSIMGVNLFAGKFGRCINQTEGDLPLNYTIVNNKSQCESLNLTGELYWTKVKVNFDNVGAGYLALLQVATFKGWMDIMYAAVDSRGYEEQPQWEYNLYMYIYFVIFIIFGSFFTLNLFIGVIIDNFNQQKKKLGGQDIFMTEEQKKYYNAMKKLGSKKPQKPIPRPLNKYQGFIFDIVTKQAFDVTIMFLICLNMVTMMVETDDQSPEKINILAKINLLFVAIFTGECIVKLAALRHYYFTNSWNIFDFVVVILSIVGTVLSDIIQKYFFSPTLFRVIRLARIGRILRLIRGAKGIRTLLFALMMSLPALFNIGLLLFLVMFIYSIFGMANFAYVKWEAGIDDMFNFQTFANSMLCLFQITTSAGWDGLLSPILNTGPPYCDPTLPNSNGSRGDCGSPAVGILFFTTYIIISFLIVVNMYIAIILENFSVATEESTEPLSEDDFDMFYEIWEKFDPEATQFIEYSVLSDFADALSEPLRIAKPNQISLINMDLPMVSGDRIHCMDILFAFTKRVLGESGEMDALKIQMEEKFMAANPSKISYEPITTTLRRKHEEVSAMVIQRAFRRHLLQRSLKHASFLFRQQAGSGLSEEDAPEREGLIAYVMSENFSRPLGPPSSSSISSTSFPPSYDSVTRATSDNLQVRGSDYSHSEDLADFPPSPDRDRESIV

`CC[C@H](C)[C@@H]1NC(=O)[C@@H]2CSSC[C@@H]3NC(=O)[C@H](C(C)C)NC(=O)[C@H](CC(C)C)NC(=O)[C@H](CC(N)=O)NC(=O)[C@@H]4CCCN4C(=O)[C@H](CCCNC(=N)N)NC(=O)[C@H](CSSC[C@H](NC(=O)[C@H](CC(=O)O)NC(=O)[C@@H](N)CCC(=O)O)C(=O)N[C@@H](CC(C)C)C(=O)NCC(=O)N[C@@H](Cc4ccccc4)C(=O)N[C@@H](CCSC)C(=O)N[C@@H](CCCNC(=N)N)C(=O)N[C@@H](CCCCN)C(=O)N2)NC(=O)[C@H](CSSC[C@@H](C(=O)N[C@@H](CCCCN)C(=O)N[C@@H](Cc2ccc(O)cc2)C(=O)N[C@H](C(=O)N[C@@H](Cc2ccccc2)C(N)=O)C(C)C)NC(=O)[C@H](Cc2c[nH]c4ccccc24)NC(=O)[C@H](CCCCN)NC(=O)[C@H](Cc2cnc[nH]2)NC(=O)[C@H]([C@@H](C)O)NC(=O)[C@H](CCCNC(=N)N)NC(=O)[C@H](CO)NC3=O)NC(=O)[C@H](CCCCN)NC(=O)[C@H](CC(=O)O)NC(=O)[C@H](CC(N)=O)NC(=O)[C@H](CC(=O)O)NC(=O)[C@@H]2CCCN2C1=O` [SEQ ID NO: 17]: the results for the IC50 at hNav1.7, against hNav1.5 (IWQ Use Nav1.5) and on hNav1.3 (setting [1]) were 0.26 µM, 12.8 µM and 0.19 µM, respectively.

For `CC[C@H](C)[C@@H]1NC(=O)[C@@H]2CSSC[C@@H]3NC(=O)[C@H](C(C)C)NC(=O)[C@H](CCSC)NC(=O)[C@H](CC(N)=O)NC(=O)[C@@H]4CCCN4C(=O)[C@H](CCCNC(=N)N)NC(=O)[C@H](CSSC[C@H](NC(=O)[C@@H](N)CC(=O)O)C(=O)N[C@@H](CC(C)C)C(=O)NCC(=O)N[C@@H](Cc4ccccc4)C(=O)N[C@@H](CCSC)C(=O)N[C@@H](CCCNC(=N)N)C(=O)N[C@@H](CCCCN)C(=O)N2)NC(=O)[C@H](CSSC[C@@H](C(=O)N[C@@H](CCCCN)C(=O)N[C@@H](Cc2ccc(O)cc2)C(=O)N[C@H](C(=O)N[C@@H](Cc2ccccc2)C(N)=O)C(C)C)NC(=O)[C@H](Cc2c[nH]c4ccccc24)NC(=O)[C@H](CCCCN)NC(=O)[C@H](Cc2c[nH]cn2)NC(=O)[C@H]([C@@H](C)O)NC(=O)[C@H](CCCNC(=N)N)NC(=O)[C@H](CO)NC3=O)NC(=O)[C@H](CCCCN)NC(=O)[C@H](CC(=O)O)NC(=O)[C@H](CC(N)=O)NC(=O)[C@H](CC(=O)O)NC(=O)[C@@H]2CCCN2C1=O` [compound 120] (H-DCLGFMRKCIPDNDKCCRPNMVCSRTHKWCKYVF-NH2; disulfide 2-17, 9-23, 16-30), the IC50 on hNav1.7 (IonWorks Quattro, Use, read-out: IWQ Use Nav1.7) amounted to 0.14 µM; at hNav1.5 (IonWorks Quattro, Use, read-out: IWQ Use Nav1.5) it was 9.54 µM; on hNav1.3 (Use) it was 0.09 µM.

Take `CC[C@H](C)[C@@H]1NC(=O)[C@@H]2CSSC[C@@H]3NC(=O)[C@H](C(C)C)NC(=O)[C@H](CC(C)C)NC(=O)[C@H](CC(N)=O)NC(=O)[C@@H]4CCCN4C(=O)[C@H](CCCNC(=N)N)NC(=O)[C@H](CSSC[C@H](NC(=O)[C@@H](N)Cc4c[nH]c5ccccc45)C(=O)N[C@@H](CC(C)C)C(=O)NCC(=O)N[C@@H](Cc4ccccc4)C(=O)N[C@@H](CCSC)C(=O)N[C@@H](CCCNC(=N)N)C(=O)N[C@@H](CCCCN)C(=O)N2)NC(=O)[C@H](CSSC[C@@H](C(=O)N[C@@H](CCCCN)C(=O)N[C@@H](Cc2ccc(O)cc2)C(=O)N[C@H](C(=O)N[C@@H](Cc2ccccc2)C(N)=O)C(C)C)NC(=O)[C@H](Cc2c[nH]c4ccccc24)NC(=O)[C@H](CCCCN)NC(=O)[C@H](Cc2cnc[nH]2)NC(=O)[C@H]([C@@H](C)O)NC(=O)[C@H](CCCNC(=N)N)NC(=O)[C@H](CO)NC3=O)NC(=O)[C@H](CCCCN)NC(=O)[C@H](CC(=O)O)NC(=O)[C@H](CC(N)=O)NC(=O)[C@H](CC(=O)O)NC(=O)[C@@H]2CCCN2C1=O` [SEQ ID NO: 81] (H-WCLGFMRKCIPDNDKCCRPNLVCSRTHKWCKYVF-NH2; disulfide 2-17, 9-23, 16-30): the results for the IC50 on hNav1.7 (setting [2]), at hNav1.5 (IWQ Use Nav1.5) and at hNav1.3 (setting [1]) were 0.05 µM, 8.79 µM and 0.1 µM, respectively.

Turning to `CC[C@H](C)[C@@H]1NC(=O)[C@@H]2CSSC[C@@H]3NC(=O)[C@H](C(C)C)NC(=O)[C@H](Cc4c[nH]c5ccccc45)NC(=O)[C@H](CC(N)=O)NC(=O)[C@@H]4CCCN4C(=O)[C@H](CCCNC(=N)N)NC(=O)[C@H](CSSC[C@H](NC(=O)[C@@H](N)CC(=O)O)C(=O)N[C@@H](CC(C)C)C(=O)NCC(=O)N[C@@H](Cc4ccccc4)C(=O)N[C@@H](CCSC)C(=O)N[C@@H](CCCNC(=N)N)C(=O)N[C@@H](CCCCN)C(=O)N2)NC(=O)[C@H](CSSC[C@@H](C(=O)N[C@@H](CCCCN)C(=O)N[C@@H](Cc2ccc(O)cc2)C(=O)N[C@H](C(=O)N[C@@H](Cc2ccccc2)C(N)=O)C(C)C)NC(=O)[C@H](Cc2c[nH]c4ccccc24)NC(=O)[C@H](CCCCN)NC(=O)[C@H](Cc2cnc[nH]2)NC(=O)[C@H]([C@@H](C)O)NC(=O)[C@H](CCCNC(=N)N)NC(=O)[C@H](CO)NC3=O)NC(=O)[C@H](CCCCN)NC(=O)[C@H](CC(=O)O)NC(=O)[C@H](CC(N)=O)NC(=O)[C@H](CC(=O)O)NC(=O)[C@@H]2CCCN2C1=O` [compound 176] (H-DCLGFMRKCIPDNDKCCRPNWVCSRTHKWCKYVF-NH2; disulfide 2-17, 9-23, 16-30), the figures for the IC50 against hNav1.7, against hNav1.5 (IWQ Use Nav1.5 (μM)) and at hNav1.3 (Use) were 0.1 µM, 13.8 µM and 0.05 µM, respectively.

Take `CC[C@H](C)[C@@H]1NC(=O)[C@@H]2CSSC[C@@H]3NC(=O)[C@H](C(C)C)NC(=O)[C@H](CC(C)C)NC(=O)[C@H](CC(N)=O)NC(=O)[C@@H]4CCCN4C(=O)[C@H](CCCNC(=N)N)NC(=O)[C@H](CSSC[C@H](NC(=O)[C@@H](N)CC(=O)O)C(=O)N[C@@H](CC(C)C)C(=O)NCC(=O)N[C@@H](Cc4ccccc4)C(=O)N(C)[C@@H](Cc4ccccc4)C(=O)N[C@@H](CCCNC(=N)N)C(=O)N[C@@H](CCCCN)C(=O)N2)NC(=O)[C@H](CSSC[C@@H](C(=O)N[C@@H](CCCCN)C(=O)N[C@@H](Cc2ccc(O)cc2)C(=O)N[C@H](C(=O)N[C@@H](Cc2ccccc2)C(N)=O)C(C)C)NC(=O)[C@H](Cc2c[nH]c4ccccc24)NC(=O)[C@H](CCCCN)NC(=O)[C@H](Cc2c[nH]cn2)NC(=O)[C@H]([C@@H](C)O)NC(=O)[C@H](CCCNC(=N)N)NC(=O)[C@H](CO)NC3=O)NC(=O)[C@H](CCCCN)NC(=O)[C@H](CC(=O)O)NC(=O)[C@H](CC(N)=O)NC(=O)[C@H](CC(=O)O)NC(=O)[C@@H]2CCCN2C1=O` [SEQ ID NO: 290]: the IC50 on hNav1.7 (setting [2]) is 0.24 µM; on hNav1.5 (IonWorks Quattro, clamped to −110 mV, depolarized to −10 mV, 5 min after compound, n=2, read-out: IWQ Use Nav1.5), 10.6 µM; at hNav1.3 (setting [1]), 0.14 µM.
